Laboratory results as given in ChEMBL document CHEMBL3430912, “GSK Tres Cantos Anti-Kinetoplastid Screening (TCAKS) Data”.
pIC50: −log10 of the molar value.

Tests used:
Trypanosoma cruzi [1] = test: (§1) GSK_TCAKS: pIC50 H2C9 Imaging: H9c2 Host Cardiomyocytes. […] Cells were then washed once with PBS before infection. T. cruzi trypomastigotes, collected at days 5 to 8 after infection from LLC-MK2 parasite infected cultures, were allowed to swim out for 4h at 37C from a centrifuged pellet (2,500 rpm/10 min/room temperature). Trypomastigotes were then collected and counted in a CASY Cell Counter. Trypomastigotes, in supplemented DMEM, were added to H9c2 cultures in a multiplicity of infection of 1 and incubated for 18 h. Cells were washed once with PBS before incubation of the infected H9c2 monolayer with trypsin (Life-Technologies) to detach cells from the flask. Cells were counted in a CASY Cell Counter using a 150 um capillary and their density set at 5 * 10^4 cells per mL in supplemented assay DMEM. Infected H9c2 were dispensed into 384-well poly-lysine coated assay plates at 50uL per well using a Multidrop Combi dispenser. After seeding them, the plates were incubated at 37C, 5% CO2 for 72h. Cultures were then fixed and stained by addition of 50 uL of a solution containing 8% formaldehyde and 4 uM DRAQ5 DNA dye (BioStatus, UK) per well. […] Five images were collected per well for reliable statistical analysis. Automated image analysis was performed with a script developed on Acapella High Content Imaging and Analysis Software (PerkinElmer). Output: Number of H9c2 Host Cardiomyocytes nuclei to determine drug-related cytotoxicity.; type: functional, organism-based, Rattus norvegicus; conditions: H9c2, 4 h
Trypanosoma cruzi [2] = test: GSK_TCAKS: pIC50 Trypanosoma cruzi viability assay using beta-GAL activity. This assay was run at single shot at 5uM compound concentration per well. The biological reagents consisted of NIH-3T3 host cells and trypomastigotes parasitic cells; both cell types were set to a 3.3 * 10^5 cells/mL dilution in assay DMEM by means of a CASY cell counter device using a 60um capillary. 6 uL of the mixture were dispensed per well (about 1 * 10^3 host-cells and 1 * 10^3 parasites) with a Multidrop Combi dispenser. […] In all wells, the percentage of DMSO never exceeded 0.5%. Plates incubated for four days at 37C, 5% CO2. The substrate used for the assay fluorescence intensity (FLINT) readout was resorufin-beta-D-galactopiranoside (Sigma-Aldrich) at 5uM per well. It was diluted in PBS supplemented with the soft detergent Igepal (Fluka).; type: functional, organism-based, Mus musculus; conditions: Tulahuen, NIH3T3
Leishmania donovani [3] = test: (§2) GSK_TCAKS: pIC50 Leishmania donovani Imaging: Amastigotes/Macrophages. Assay plates (384-well) were prepared by adding 250nL of compound to each well. For single shot assay, the final compound concentration was 5 uM. […] Automated image analysis was performed with a script developed on Acapella High Content Imaging and Analysis Software (PerkinElmer). Output: Average number of amastigotes per macrophage cell were reported for each well.; type: functional, organism-based, Homo sapiens; conditions: THP-1
Trypanosoma cruzi [4] = test: as §1, with “Trypanosoma cruzi” for “H2C9”, “Infected Cells.” for “H9c2 Host Cardiomyocytes.”, “percentage” for “Number”, “infected cells per well as a second infection marker.” for “H9c2 Host Cardiomyocytes nuclei to determine drug-related cytotoxicity.”; type: functional, organism-based, Rattus norvegicus; conditions: H9c2, 4 h
Trypanosoma cruzi [5] = test: as §1, with “Trypanosoma cruzi” for “H2C9”, “Amastigotes/Cell.” for “H9c2 Host Cardiomyocytes.”, “number” for “Number”, “amastigotes per cell as infection level measurement.” for “H9c2 Host Cardiomyocytes nuclei to determine drug-related cytotoxicity.”; type: functional, organism-based, Rattus norvegicus; conditions: H9c2, 4 h
[6] = test system: Trypanosoma brucei brucei; test: GSK_TCAKS: pIC50 Trypanosoma brucei viability assay using fluorescence intensity. Assay plates (1536-well) were prepared by dispensing 25nL of compound solution per well using an Echo acoustic dispenser (Labcyte).; type: functional, organism-based; conditions: Lister 427, 2 h
Leishmania donovani [7] = test: as §2, with “THP-1 Host Macrophages.” for “Amastigotes/Macrophages.”, “THP-1” for “Average number of amastigotes per macrophage”, “cell count” for “cell”; type: functional, organism-based, Homo sapiens
[8] = target: Sterol 14-alpha demethylase (Trypanosoma cruzi (strain CL Brener), UniProt Q7Z1V1); test: GSK_TCAKS: pIC50 CYP51 from Trypanosoma cruzi.; type: functional
Sterol 14-alpha demethylase, sequence (Q7Z1V1 whole entry): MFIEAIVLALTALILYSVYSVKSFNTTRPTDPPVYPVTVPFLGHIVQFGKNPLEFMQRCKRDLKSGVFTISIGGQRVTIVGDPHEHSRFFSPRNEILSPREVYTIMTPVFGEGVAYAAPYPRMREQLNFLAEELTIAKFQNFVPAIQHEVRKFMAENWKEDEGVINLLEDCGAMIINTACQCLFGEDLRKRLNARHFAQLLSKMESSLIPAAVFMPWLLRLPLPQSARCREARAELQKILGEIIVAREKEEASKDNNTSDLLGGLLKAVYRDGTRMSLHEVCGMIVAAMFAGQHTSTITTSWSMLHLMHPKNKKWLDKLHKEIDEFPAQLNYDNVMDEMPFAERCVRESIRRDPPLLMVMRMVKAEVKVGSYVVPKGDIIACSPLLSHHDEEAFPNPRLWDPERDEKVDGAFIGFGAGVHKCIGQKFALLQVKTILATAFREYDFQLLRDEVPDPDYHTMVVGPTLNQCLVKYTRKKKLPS

NIH3T3 = test: GSK_TCAKS: pIC50 NIH 3T3 cell line viability assay using luminiscence. Tissue culture surface treated assay plates (1536-well) were used. […] The 100% cells survival control was determined exposing the host-cells to a 0.5% DMSO concentration, whereas the 100% toxicity control was achieved by seeding the cells in presence of Amphotericin B at 50uM. Plates were incubated for four days at 37C, 5% CO2. The assay readout was developed by addition of 5uL of CellTiter-Glo Reagent following the manufacturer's instructions. Luminiscence was measured using a ViewLux.; type: functional, cell-based; conditions: Mus musculus, NIH3T3, 96 h
Leishmania donovani [9] = test: GSK_TCAKS: pIC50 Leishmania donovani viability assay using fluorescence intensity. Assay plates (1536-well) were prepared by adding 30nL per well of compound. For single shot assay, the final compound concentration was 5uM. […] Briefly, eGFP LdBOB axenic amastigotes were harvested, fixed and counted in a CASY cell counter (Roche-Applied Science). A final concentration of 1.5 * 10^5 cells per well were prepared in amastigote media containing 500 U/mL penicillin/streptomycin (Invitrogen) and 6uL was dispensed to each experimental well using a Multidrop Combi dispenser (Thermo Scientific). 6uL of assay media was dispensed to control columns used as reference for 100% compound response. Following incubation for 72 h at 37C, 5% CO2, 2 uL of resazurin was added to each well at a final concentration of 0.5 mM in phosphate buffered saline (PBS) with IGEPAL (Sigma-Aldrich), 0.05% (v/v).; type: functional, organism-based
[10] = test system: Trypanosoma brucei brucei; test: GSK_TCAKS: pIC50 Trypanosoma brucei viability assay using luminiscence. Assay plates (1536-well) were prepared. T. brucei cultures were harvested and counted in a CASY cell counter. A parasite suspension was prepared at a final concentration of 5 * 10^4 cells/mL in complete HMI9 medium and 6uL was dispensed to all wells containing compounds using a Multidrop Combi dispenser. 6uL of HMI9 media with 0.4% DMSO were dispensed to control columns. Plates were incubated for 24 h at 37C, 5% CO2 then tempered for 10 min at room temperature. ATP content was quantified by adding 4 uL of CellTiter-Glo Reagent (Promega) according to the manufacturer's instructions. Luminescence was measured using a ViewLux.; type: functional, organism-based; conditions: Lister 427, CASY
Leishmania donovani [11] = test: as §2, with “Infected Macrophages.” for “Amastigotes/Macrophages.”, “Percent” for “Average number”, “infected” for “amastigotes per”, “cells” for “cell”; type: functional, organism-based, Homo sapiens; conditions: THP-1
[12] = GSK_TCAKS: pIC50 HepG2 human cell line viability assay using luminiscence. […] Seeding density was checked to ensure that new mono-layers were not more than 50% confluent at the time of harvesting. Cell suspension was added to 500 mL of the same medium at a final density of 1.2 * 10^5 cells/mL. This cell suspension was dispensed (25 uL, 3000 cells per well) into 384-well clear-bottom plates using a Multidrop Combi dispenser. Prior to addition of the cell suspension, the screening compounds (250 nL) were pre-dispensed into the plates with an Echo liquid handler. Plates were incubated for 48 h at 37C, 5% CO2. After incubation, plates equilibrated at room temperature for 30 min before proceeding to develop the luminescent signal. The signal developer, CellTiter-Glo Reagent, was allowed to equilibrate at room temperature for 30 min and added to the plates (25uL per well) using a Multidrop Combi dispenser. Plates were left for 10 min at room temperature for stabilization and then read using a ViewLux.; type: toxicity, cell-based

SMILES | pIC50 (Trypanosoma cruzi [1]) | pIC50 (Trypanosoma cruzi [2]) | pIC50 (Leishmania donovani [3]) | pIC50 (Trypanosoma cruzi [4]) | pIC50 (Trypanosoma cruzi [5]) | pIC50 [6] | pIC50 (Leishmania donovani [7]) | pIC50 [8] | pIC50 (NIH3T3) | pIC50 (Leishmania donovani [9]) | pIC50 [10] | pIC50 (Leishmania donovani [11]) | IC50 at 48 h [12]
O=C(NCc1nnc2n1CCCCC2)c1ccc(-c2ccc(F)cc2)o1 | < 4.30 | 5.85 | < 4.30 | 5.80 | 6.00 | 6.90 | < 4.30 | 4.10 | < 4.30 | < 4.30 | 6.60 | < 4.30 | > 100 µM
Fc1ccc(O[C@H]2C[C@H](NCc3cccc4cn[nH]c34)C2)cc1C(F)(F)F | 5.10 | 6.10 | 5.10 | 6.70 | 6.80 | 5.10 | 5.00 | 6.90 | 4.90 | 4.70 | 5.00 | 5.10 | 25.1 µM
c1cc(-c2ncc(-c3ccn[nH]3)s2)ccn1 | < 4.30 | 6.75 | 5.00 | 6.60 | 6.60 | 4.70 | < 4.30 | 7.40 | < 4.30 | < 4.30 | < 4.40 | < 4.30 | > 100 µM
CNc1c(C(N)=O)c(-c2ccc3scnc3c2)nn1CC(F)(F)F | < 4.30 | 6.90 | < 4.30 | 6.60 | 6.80 | 4.50 | < 4.30 | < 4.00 | 4.70 | < 4.30 | < 4.40 | < 4.30 | > 100 µM
CNc1cncc(C2CCCN2C(=O)Cc2coc3cc(C)ccc23)n1 (stereo not drawn) | < 4.30 | 6.80 | 6.10 | 6.70 | 6.70 | < 4.40 | < 4.30 | 7.60 | < 4.30 | 5.50 | < 4.40 | < 4.30 | > 100 µM
CNc1cncc(C2CCCN2C(=O)Cc2ccc3ccccc3c2)n1 (stereo not drawn) | < 4.30 | 7.10 | < 4.30 | 6.80 | 6.80 | < 4.40 | < 4.30 | 7.00 | < 4.30 | < 4.30 | < 4.40 | < 4.30 | > 100 µM
O=C(NCCc1n[nH]c(-c2ccc(F)c(F)c2)n1)C1CCCCC1 | < 4.30 | 5.70 | 4.80 | 5.60 | 5.80 | 6.30 | 4.70 | 4.60 | < 4.30 | < 4.30 | 6.00 | < 4.30 | > 100 µM
COc1ccc(CN2CCCCC2c2nc(-c3cccnc3)no2)cc1 (stereo not drawn) | < 4.30 | 6.10 | < 4.30 | 6.10 | 6.20 | < 4.40 | < 4.30 | 6.70 | < 4.30 | < 4.30 | < 4.40 | < 4.30 | > 100 µM
COc1ccc(C(=O)N2CCC(Nc3cccnc3)C2)c(OC)n1 (stereo not drawn) | < 4.30 | 6.50 | < 4.30 | 6.10 | 6.10 | < 4.40 | < 4.30 | 7.20 | < 4.30 | 4.80 | < 4.40 | < 4.30 | > 100 µM
OCCCNc1nc(Nc2ccncc2)nc2ccccc12 | < 4.30 | 6.15 | < 4.30 | 5.90 | 6.70 | 4.60 | < 4.30 | < 4.00 | < 4.30 | 4.40 | < 4.40 | < 4.30 | > 100 µM
Cc1nn(C)c(Cl)c1CN(Cc1cccnc1)Cc1ccsc1 | < 4.30 | 6.75 | 5.50 | 6.50 | 6.50 | < 4.40 | < 4.30 | 7.20 | 4.70 | 5.70 | < 4.40 | < 4.30 | > 100 µM
CC(Cn1ccnc1)NC(=O)COc1ccc(Cl)c(Cl)c1 (stereo not drawn) | < 4.30 | 6.65 | < 4.30 | 6.30 | 6.40 | < 4.40 | < 4.30 | 7.20 | < 4.30 | < 4.30 | < 4.40 | < 4.30 | > 100 µM
Cc1ccc(C)c(OC2CCN(C(=O)C(C)n3ccnc3)CC2)c1 (stereo not drawn) | < 4.30 | 6.75 | 6.50 | 6.40 | 6.50 | < 4.40 | < 4.30 | 7.00 | < 4.30 | 5.60 | < 4.40 | < 4.30 | > 100 µM
Cc1[nH]c2ccccc2c(=O)c1Cc1c(C)[nH]c2ccccc2c1=O | < 4.30 | 5.60 | < 4.30 | 5.50 | 6.00 | < 4.40 | < 4.30 | < 4.00 | < 4.30 | 4.70 | < 4.40 | < 4.30 | > 100 µM
O=C(c1cnn(-c2ccccc2)n1)N1CCCC(n2ccnc2)C1 (stereo not drawn) | < 4.30 | 7.25 | 6.20 | 7.10 | 7.20 | < 4.40 | < 4.30 | 7.10 | 4.70 | 5.10 | 4.50 | < 4.30 | > 100 µM
CNc1cc(C)nc(C2CN(C(=O)c3n[nH]c4ccccc34)CCO2)c1 (stereo not drawn) | < 4.30 | 5.90 | < 4.30 | 5.60 | 6.10 | 4.70 | < 4.30 | < 4.00 | < 4.30 | < 4.30 | < 4.40 | < 4.30 | > 100 µM
